Values after ≈ are worked out from the molar mass of the structure shown. Read-outs that look alike come from different tables or passages of the source.
Key:
[1] = target: human Fibroblast activation protein alpha (hFAP) (Homo sapiens (Human), UniProt Q12884); test: hFAP inhibition assay (tight binders); format: biochemical; conditions: tight-binder format, Ala-Pro-AMC 20 μM, 2.5 h incubation; n = 1 or geometric mean (n = 5-10)
Protocol: Data were analyzed in Genedata Screener®.

[2] = target: Prolyl Oligopeptidase (hPREP) (Homo sapiens (Human), UniProt P48147); test: hPREP inhibition assay; format: biochemical; conditions: hPREP 0.6 nM, Z-Gly-Pro-amino-methylcoumarin 50 μM; read-out: PREP IC50
Protocol: Compounds were tested in a biochemical inhibition assay using Prolyl endopeptidase, Prolyl Oligopeptidase (hPREP) enzyme at 0.6 nM FAC (R&D Systems, 4308-SE) and the substrate Z-Gly-Pro-amino-methylcoumarin (Bachem, I-1145) at 50 μM FAC. 384 Low volume black plates (Greiner #784076) were used. […] 4 μL, 100 μM substrate solution (25 mM Tris HCl, 250 mM NaCl, 0.01% Triton X-100, 5 mM Glutathione, pH 7.5) was added to each well. Plates were centrifuged at 1000 rpm and incubated for 20 min at rt in dark. […] Data were analyzed in Genedata Screener®.

[3] = Metabolic stability in human liver microsomes (HLM); format: in vitro ADME
Protocol: Metabolic stability in HLM was measured as described in J Comput Aided Mol Des 2015, 29, 795.

[4] = tested on: Rat Hepatocytes (rHep); test: Metabolic stability in rat hepatocytes (rHep); format: in vitro ADME
Protocol: Metabolic stability in rat hepatocytes was measured as described in J Comput Aided Mol Des 2015, 29, 795.

[5] = tested on: Human Hepatocytes (hHep); test: Metabolic stability in human hepatocytes (hHep); format: in vitro ADME
Protocol: Metabolic stability in human hepatocytes was measured as described in Xenobiotica 2010, 40, 637.

[6] = Kinetic solubility; format: physicochemical
Protocol: Kinetic solubility was measured as described in Comput Aided Mol Des 2015, 29, 795.

[7] = target: hFAP (Homo sapiens (Human), UniProt Q12884);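 further: fluorescence read after incubating enzyme with substrate at room temperature, IC50 fitted from percent inhibition against log concentration with a one-site model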
hFAP, sequence (Q12884 38-760): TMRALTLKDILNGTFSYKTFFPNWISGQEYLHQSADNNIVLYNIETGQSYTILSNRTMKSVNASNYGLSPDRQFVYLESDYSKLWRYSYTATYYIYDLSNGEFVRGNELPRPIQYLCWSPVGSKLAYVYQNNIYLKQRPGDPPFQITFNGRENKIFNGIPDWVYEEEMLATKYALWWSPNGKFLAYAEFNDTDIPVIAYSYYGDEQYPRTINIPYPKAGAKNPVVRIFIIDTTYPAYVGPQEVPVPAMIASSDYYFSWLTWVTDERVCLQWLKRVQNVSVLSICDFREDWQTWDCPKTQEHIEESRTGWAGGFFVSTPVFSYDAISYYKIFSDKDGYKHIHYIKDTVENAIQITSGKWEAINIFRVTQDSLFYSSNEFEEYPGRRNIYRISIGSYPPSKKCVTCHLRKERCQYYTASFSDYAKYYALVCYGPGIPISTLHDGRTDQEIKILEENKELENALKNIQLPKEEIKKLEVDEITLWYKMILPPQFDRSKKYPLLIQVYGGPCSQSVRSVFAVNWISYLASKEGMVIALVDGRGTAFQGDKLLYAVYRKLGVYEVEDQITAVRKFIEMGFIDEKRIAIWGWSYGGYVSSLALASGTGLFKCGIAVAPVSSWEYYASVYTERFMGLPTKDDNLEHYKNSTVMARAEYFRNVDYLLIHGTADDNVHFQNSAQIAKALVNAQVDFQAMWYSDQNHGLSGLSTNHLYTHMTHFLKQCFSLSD
Protocol: Compounds were tested in a biochemical inhibition assay using hFAP enzyme at 0.24 nM FAC (Proteros, 38-760 (PR-0071)) and the substrate Ala-Pro-AMC (ARI-3144) at 20 μM FAC. 384 low volume black plates (Greiner #784076) were used. 4 μL, 0.48 nM enzyme solution (100 mM Tris HCl, 100 mM NaCl, 0.05% Chaps, pH 7.4) was added to 40 nL compounds (in DMSO) at 10 CR, 3-fold dilution series from 50 μM FAC. Plates were incubated for 15 min at rt in dark. 4 μL, 40 μM substrate solution (100 mM Tris HCl, 100 mM NaCl, 0.05% Chaps, pH 7.4) was added to each well. Plates were centrifuged at 1000 rpm and incubated for 30 min at rt in dark. The plates were read on a PHERAstar® reader with excitation 340 nm and emission 460 nm. Data were analyzed in Genedata Screener®. IC50 values were determined by plotting % inhibition versus log compound concentration and using a one site dose response model.

Prolyl Oligopeptidase (hPREP), sequence (P48147 whole entry): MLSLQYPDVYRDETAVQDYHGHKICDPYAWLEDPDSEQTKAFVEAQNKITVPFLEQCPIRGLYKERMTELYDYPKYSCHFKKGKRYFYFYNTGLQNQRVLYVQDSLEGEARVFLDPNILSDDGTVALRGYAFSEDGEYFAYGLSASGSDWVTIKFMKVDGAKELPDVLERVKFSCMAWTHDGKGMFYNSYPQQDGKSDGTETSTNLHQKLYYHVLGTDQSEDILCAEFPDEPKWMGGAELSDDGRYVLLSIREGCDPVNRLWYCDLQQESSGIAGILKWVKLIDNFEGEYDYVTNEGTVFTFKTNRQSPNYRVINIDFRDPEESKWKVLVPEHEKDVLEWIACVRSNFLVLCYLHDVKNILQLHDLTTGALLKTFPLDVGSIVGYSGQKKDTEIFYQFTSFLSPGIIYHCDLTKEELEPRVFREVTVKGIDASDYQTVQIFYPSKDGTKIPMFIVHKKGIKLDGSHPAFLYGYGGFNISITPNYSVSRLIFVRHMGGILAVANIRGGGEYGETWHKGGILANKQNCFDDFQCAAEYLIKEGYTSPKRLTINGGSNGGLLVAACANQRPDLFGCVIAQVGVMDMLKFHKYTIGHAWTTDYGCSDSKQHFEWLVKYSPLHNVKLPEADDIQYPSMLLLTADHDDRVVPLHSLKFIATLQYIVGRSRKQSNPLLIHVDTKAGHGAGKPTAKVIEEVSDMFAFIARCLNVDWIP
human Fibroblast activation protein alpha (hFAP), sequence (Q12884 38-760): as the sequence (Q12884 38-760) above

IC50 [1]	IC50 [2]	microsomal CLint [3]	rHeps CLint [4]	hHep CLint [5]	solubility ([6]; kinetic from dmso stock)	IC50 [7]	solubility [6]	SMILES
0.032 µM	22 µM	< 3 µL/min/mg	1.2 μL/min/1E6	<1 μL/min/1E6	> 1000 µM	0.064 µM		Cc1cc(C(=O)NCC(=O)N2[C@H](C#N)C[C@@H]3C[C@@H]32)c2cc(F)ccc2n1 [Example 4, N-(2-((1S,3S,5S)-3-Cyano-2-azabicyclo[3.1.0]hexan-2-yl)-2-oxoethyl)-6-fluoro-2-methylquinoline-4-carboxamide]
0.018 µM	18 µM	11 µL/min/mg	2.8 μL/min/1E6		140 µM (≈ 51.6 µg/mL)	0.065 µM		Cc1cc(C(=O)NCC(=O)N2[C@H](C#N)C[C@@H]3C[C@@H]32)c2cc(Cl)ccc2n1 [Example 5, 6-Chloro-N-(2-((1S,3S,5S)-3-cyano-2-azabicyclo[3.1.0]hexan-2-yl)-2-oxoethyl)-2-methylquinoline-4-carboxamide]
0.018 µM	13 µM	23 µL/min/mg	5.8 μL/min/1E6		61 µM (≈ 25.2 µg/mL)	0.058 µM		Cc1cc(C(=O)NCC(=O)N2[C@H](C#N)C[C@@H]3C[C@@H]32)c2cc(Br)ccc2n1 [Example 6, 6-Bromo-N-(2-((1S,3S,5S)-3-cyano-2-azabicyclo[3.1.0]hexan-2-yl)-2-oxoethyl)-2-methylquinoline-4-carboxamide]
0.015 µM	18 µM	43 µL/min/mg	12 μL/min/1E6		23 µM (≈ 10.6 µg/mL)	0.053 µM		Cc1cc(C(=O)NCC(=O)N2[C@H](C#N)C[C@@H]3C[C@@H]32)c2cc(I)ccc2n1 [Example 7, N-(2-((1S,3S,5S)-3-Cyano-2-azabicyclo[3.1.0]hexan-2-yl)-2-oxoethyl)-6-iodo-2-methylquinoline-4-carboxamide]
0.02 µM	44 µM	< 3 µL/min/mg	1.3 μL/min/1E6	<1 μL/min/1E6	890 µM (≈ 314 µg/mL)	0.071 µM		Cc1cc(C(=O)NCC(=O)N2[C@H](C#N)C[C@@H]3C[C@@H]32)c2ccc(F)cc2n1 [Example 8, N-(2-((1S,3S,5S)-3-Cyano-2-azabicyclo[3.1.0]hexan-2-yl)-2-oxoethyl)-7-fluoro-2-methylquinoline-4-carboxamide]
0.00086 µM	> 50 µM	< 3 µL/min/mg	2 μL/min/1E6	<1 μL/min/1E6	> 1000 µM	0.0038 µM		CC(C)(O)c1ccc2nccc(C(=O)NCC(=O)N3[C@H](C#N)C[C@@H]4C[C@@H]43)c2c1 [Example 13, N-(2-((1S,3S,5S)-3-Cyano-2-azabicyclo[3.1.0]hexan-2-yl)-2-oxoethyl)-6-(2-hydroxypropan-2-yl)quinoline-4-carboxamide]
0.00091 µM	> 50 µM	< 3 µL/min/mg	<1 μL/min/1E6		> 1000 µM	0.0026 µM		CC(O)c1ccc2nccc(C(=O)NCC(=O)N3[C@H](C#N)C[C@@H]4C[C@@H]43)c2c1 (stereo partly drawn) [Example 14, N-(2-((1S,3S,5S)-3-Cyano-2-azabicyclo[3.1.0]hexan-2-yl)-2-oxoethyl)-6-(1-hydroxyethyl)quinoline-4-carboxamide]
0.0011 µM	> 50 µM	30 µL/min/mg	9.4 μL/min/1E6	3.3 μL/min/1E6	> 1000 µM	0.016 µM		COC(C)c1ccc2nccc(C(=O)NCC(=O)N3[C@H](C#N)C[C@@H]4C[C@@H]43)c2c1 (stereo partly drawn) [Example 15, N-(2-((1S,3S,5S)-3-Cyano-2-azabicyclo[3.1.0]hexan-2-yl)-2-oxoethyl)-6-(1-methoxyethyl)quinoline-4-carboxamide]
0.025 µM	> 50 µM	120 µL/min/mg	18 μL/min/1E6		800 µM (≈ 290 µg/mL)	0.08 µM		CCc1ccc2nc(C)cc(C(=O)NCC(=O)N3[C@H](C#N)C[C@@H]4C[C@@H]43)c2c1 [Example 18, N-(2-((1S,3S,5S)-3-Cyano-2-azabicyclo[3.1.0]hexan-2-yl)-2-oxoethyl)-6-ethyl-2-methylquinoline-4-carboxamide]
0.033 µM	43 µM	12 µL/min/mg	<1 μL/min/1E6		> 1000 µM	0.08 µM		Cc1ccc2nc(C)cc(C(=O)NCC(=O)N3[C@H](C#N)C[C@@H]4C[C@@H]43)c2c1 [Example 19, N-(2-((1S,3S,5S)-3-Cyano-2-azabicyclo[3.1.0]hexan-2-yl)-2-oxoethyl)-2,6-dimethylquinoline-4-carboxamide]
0.00037 µM	> 50 µM	< 3 µL/min/mg	<1 μL/min/1E6		960 µM (≈ 350 µg/mL)	< 0.0018 µM		CC(O)c1ccc2c(C(=O)NCC(=O)N3[C@H](C#N)C[C@@H]4C[C@@H]43)ccnc2c1 (stereo partly drawn) [Example 25, N-(2-((1S,3S,5S)-3-Cyano-2-azabicyclo[3.1.0]hexan-2-yl)-2-oxoethyl)-7-(1-hydroxyethyl)quinoline-4-carboxamide]
0.0007 µM	> 50 µM	< 3 µL/min/mg	<1 μL/min/1E6		> 1000 µM	0.0021 µM		CC(C)(O)c1ccc2c(C(=O)NCC(=O)N3[C@H](C#N)C[C@@H]4C[C@@H]43)ccnc2c1 [Example 26, N-(2-((1S,3S,5S)-3-Cyano-2-azabicyclo[3.1.0]hexan-2-yl)-2-oxoethyl)-7-(2-hydroxypropan-2-yl)quinoline-4-carboxamide]
0.00041 µM	> 50 µM	42 µL/min/mg	16 μL/min/1E6		200 µM (≈ 86.5 µg/mL)	0.0031 µM		CC(OC(F)(F)F)c1ccc2c(C(=O)NCC(=O)N3[C@H](C#N)C[C@@H]4C[C@@H]43)ccnc2c1 (stereo partly drawn) [Example 30, N-(2-((1S,3S,5S)-3-Cyano-2-azabicyclo[3.1.0]hexan-2-yl)-2-oxoethyl)-7-(1-(trifluoromethoxy)ethyl)quinoline-4-carboxamide]
	> 50 µM	46 µL/min/mg	72 μL/min/1E6		37 µM (≈ 13.9 µg/mL)	0.002 µM		CC1(c2ccc3c(C(=O)NCC(=O)N4[C@H](C#N)C[C@@H]5C[C@@H]54)ccnc3c2)CC1 [Example 32, N-(2-((1S,3S,5S)-3-Cyano-2-azabicyclo[3.1.0]hexan-2-yl)-2-oxoethyl)-7-(1-methylcyclopropyl)quinoline-4-carboxamide]
		170 µL/min/mg	9.8 μL/min/1E6	25 μL/min/1E6	700 µM (≈ 293 µg/mL)	0.0014 µM		N#C[C@@H]1C[C@@H]2C[C@@H]2N1C(=O)CNC(=O)c1ccnc2ccc(OCC(F)(F)F)cc12 [Example 33, N-(2-((1S,3S,5S)-3-Cyano-2-azabicyclo[3.1.0]hexan-2-yl)-2-oxoethyl)-6-(2,2,2-trifluoroethoxy)quinoline-4-carboxamide]
	> 50 µM	190 µL/min/mg	55 μL/min/1E6		430 µM (≈ 195 µg/mL)	0.0013 µM		N#C[C@@H]1C[C@@H]2C[C@@H]2N1C(=O)CNC(=O)c1ccnc2ccc(OC3CCC(F)(F)CC3)cc12 [Example 38, N-(2-((1S,3S,5S)-3-Cyano-2-azabicyclo[3.1.0]hexan-2-yl)-2-oxoethyl)-6-((4,4-difluorocyclohexyl)oxy)quinoline-4-carboxamide]
0.00041 µM	> 50 µM	77 µL/min/mg	13 μL/min/1E6		960 µM (≈ 388 µg/mL)	0.0015 µM		CCOC1(c2ccc3c(C(=O)NCC(=O)N4[C@H](C#N)C[C@@H]5C[C@@H]54)ccnc3c2)CC1 [Example 39, N-(2-((1S,3S,5S)-3-Cyano-2-azabicyclo[3.1.0]hexan-2-yl)-2-oxoethyl)-7-(1-ethoxycyclopropyl)quinoline-4-carboxamide]
						0.0056 µM		N#C[C@@H]1C[C@@H]2C[C@@H]2N1C(=O)CNC(=O)c1ccnc2ccc(C3CC3)cc12 [Example 42, N-(2-((1S,3S,5S)-3-Cyano-2-azabicyclo[3.1.0]hexan-2-yl)-2-oxoethyl)-6-cyclopropylquinoline-4-carboxamide]
							590 µM (≈ 213 µg/mL)	N#C[C@@H]1C[C@@H]2C[C@@H]2N1C(=O)CNC(=O)c1ccnc2cc(C3CC3)ccc12 [Example 47, N-(2-((1S,3S,5S)-3-Cyano-2-azabicyclo[3.1.0]hexan-2-yl)-2-oxoethyl)-7-cyclopropylquinoline-4-carboxamide]
	0.0071 µM							N#C[C@@H]1CSCN1C(=O)CNC(=O)c1ccnc2ccccc12 [Reference Compound C, (R)-N-(2-(4-cyanothiazolidin-3-yl)-2-oxoethyl)-quinoline-4-carboxamide, reference compound]
